According to US20240270695A1, “COMPOUNDS, COMPOSITIONS AND METHODS OF TREATING DISORDERS” (Chengdu Anticancer Bioscience LTD, priority 2021, published 2024):

Legend:
[1] = system: RPE-Neo or RPE-MYC or RPE-MYC expressing an EGFP-Histone 2B fusion protein; experiment: Phenotypic screening assay (arrest in mitosis, change in DNA content, cell death; GE IN-Cell Analyzer 2000); format: cell-based; details: Homo sapiens, compounds 20 nM to 20 μM, 24, 48 or 72 hours
[2] = system: RPE-Neo or RPE-MYC or RPE-MYC expressing an EGFP-Histone 2B fusion protein; experiment: MTT assays of cellular proliferation; format: cell-based; details: Homo sapiens, min. effective conc., read-out: Proliferative arrest (<50%)
[3] = read-out: Min. Effective conc. for Polyploidy (≥10%)
[4] = min. effective conc., read-out: Cell Death (>30%)
[5] = min. effective conc., read-out: Mitotic Arrest (≥10%)

| SMILES | minimal effective concentration [1, 3] [µM] | minimal effective concentration [1, 4] [µM] | minimal effective concentration [1, 5] [µM] | minimal effective concentration [2] [µM] |
| --- | --- | --- | --- | --- |
| CNC(=O)C1=C(O)c2ccccc2N(Cc2ccc(F)c(OC)c2)C(=O)C1 [Example 112, 1-(4-fluoro-3-methoxybenzyl)-5-hydroxy-N-methyl-2-oxo-2,3-dihydro-1H-benzo[b]azepine-4-carboxamide] | 1 to 10 | 1 to 10 | 1 to 10 | 1 to 10 |
| CNC(=O)C1=C(O)c2ccccc2N(Cc2cccc(OC)c2F)C(=O)C1 [Example 113, 1-(2-fluoro-3-methoxybenzyl)-5-hydroxy-N-methyl-2-oxo-2,3-dihydro-1H-benzo[b]azepine-4-carboxamide] | 10 to 30 | 10 to 30 | 10 to 30 | 10 to 30 |
| CNC(=O)C1=C(O)c2ccccc2N(Cc2cc(F)ccc2OC)C(=O)C1 [Example 114, 1-(5-fluoro-2-methoxybenzyl)-5-hydroxy-N-methyl-2-oxo-2,3-dihydro-1H-benzo[b]azepine-4-carboxamide] | 1 to 10 | 1 to 10 | 1 to 10 | 1 to 10 |
| CNC(=O)C1=C(O)c2ccccc2N(Cc2cc(F)ccc2C)C(=O)C1 [Example 115, 1-(5-fluoro-2-methylbenzyl)-5-hydroxy-N-methyl-2-oxo-2,3-dihydro-1H-benzo[b]azepine-4-carboxamide] | 30 to 1000 | 30 to 1000 | 10 to 30 | 30 to 1000 |
| CNC(=O)C1=C(O)c2ccccc2N(Cc2ccc(F)c(Cl)c2)C(=O)C1 [Example 116, 1-(3-chloro-4-fluorobenzyl)-5-hydroxy-N-methyl-2-oxo-2,3-dihydro-1H-benzo[b]azepine-4-carboxamide] | 30 to 1000 | 30 to 1000 | 30 to 1000 | 30 to 1000 |
| CNC(=O)C1=C(O)c2ccccc2N(Cc2ccc(F)c(C#N)c2)C(=O)C1 [Example 117, 1-(3-cyano-4-fluorobenzyl)-5-hydroxy-N-methyl-2-oxo-2,3-dihydro-1H-benzo[b]azepine-4-carboxamide] | 30 to 1000 | 30 to 1000 | 30 to 1000 | 30 to 1000 |
| CNC(=O)C1=C(O)c2ccccc2N(Cc2ccc(F)c(C(F)(F)F)c2)C(=O)C1 [Example 118, 1-(4-fluoro-3-(trifluoromethyl)benzyl)-5-hydroxy-N-methyl-2-oxo-2,3-dihydro-1H-benzo[b]azepine-4-carboxamide] | 30 to 1000 | 30 to 1000 | 30 to 1000 | 30 to 1000 |
| CNC(=O)C1=C(O)c2ccccc2N(Cc2ccc(C)c(Cl)c2)C(=O)C1 [Example 119, 1-(3-chloro-4-methylbenzyl)-5-hydroxy-N-methyl-2-oxo-2,3-dihydro-1H-benzo[b]azepine-4-carboxamide] | 10 to 30 | 10 to 30 | 10 to 30 | 10 to 30 |
| CNC(=O)C1=C(O)c2ccccc2N(Cc2ccc(C)c(Br)c2)C(=O)C1 [Example 120] | 10 to 30 | 10 to 30 | 10 to 30 | 10 to 30 |
| CNC(=O)C1=C(O)c2ccccc2N(Cc2cc(C)c(F)c(C)c2)C(=O)C1 [Example 121, 1-(4-fluoro-3,5-dimethylbenzyl)-5-hydroxy-N-methyl-2-oxo-2,3-dihydro-1H-benzo[b]azepine-4-carboxamide] | 10 to 30 | 10 to 30 | 10 to 30 | 10 to 30 |
| CNC(=O)C1=C(O)c2ccccc2N(Cc2cc(F)c(OC)c(F)c2)C(=O)C1 [Example 122, 1-(3,5-difluoro-4-methoxybenzyl)-5-hydroxy-N-methyl-2-oxo-2,3-dihydro-1H-benzo[b]azepine-4-carboxamide] | 30 to 1000 | 30 to 1000 | 30 to 1000 | 30 to 1000 |
| CNC(=O)C1=C(O)c2ccccc2N(Cc2ccc(OC)c(C(F)(F)F)c2)C(=O)C1 [Example 123, 5-hydroxy-1-(4-methoxy-3-(trifluoromethyl)benzyl)-N-methyl-2-oxo-2,3-dihydro-1H-benzo[b]azepine-4-carboxamide] | 30 to 1000 | 30 to 1000 | 30 to 1000 | 30 to 1000 |
| CNC(=O)C1=C(O)c2ccccc2N(Cc2ccc(Cl)c(F)c2)C(=O)C1 [Example 124, 1-(4-chloro-3-fluorobenzyl)-5-hydroxy-N-methyl-2-oxo-2,3-dihydro-1H-benzo[b]azepine-4-carboxamide] | 1 to 10 | 1 to 10 | 1 to 10 | 1 to 10 |
| CNC(=O)C1=C(O)c2ccccc2N(Cc2ccc(Br)c(F)c2)C(=O)C1 [Example 125, 1-(4-bromo-3-fluorobenzyl)-5-hydroxy-N-methyl-2-oxo-2,3-dihydro-1H-benzo[b]azepine-4-carboxamide] | 1 to 10 | 1 to 10 | 1 to 10 | 1 to 10 |
| CNC(=O)C1=C(O)c2ccc(OC)cc2N(Cc2ccc(C)c(F)c2)C(=O)C1 [Example 127, 1-(3-fluoro-4-methylbenzyl)-5-hydroxy-8-methoxy-N-methyl-2-oxo-2,3-dihydro-1H-benzo[b]azepine-4-carboxamide] | 0.001 to 1 | 0.001 to 1 | 0.001 to 1 | 0.001 to 1 |
| CCOc1ccc2c(c1)N(Cc1ccc(C)c(F)c1)C(=O)CC(C(=O)NC)=C2O [Example 128, 8-ethoxy-1-(3-fluoro-4-methylbenzyl)-5-hydroxy-N-methyl-2-oxo-2,3-dihydro-1H-benzo[b]azepine-4-carboxamide] | 1 to 10 | 1 to 10 | 1 to 10 | 1 to 10 |
| CNC(=O)C1=C(O)c2ccc(OC(F)F)cc2N(Cc2ccc(C)c(F)c2)C(=O)C1 [Example 129, 8-(difluoromethoxy)-1-(3-fluoro-4-methylbenzyl)-5-hydroxy-N-methyl-2-oxo-2,3-dihydro-1H-benzo[b]azepine-4-carboxamide] | 0.001 to 1 | 0.001 to 1 | 0.001 to 1 | 0.001 to 1 |
| CNC(=O)C1=C(O)c2ccc(Br)cc2N(Cc2ccc(F)c(C)c2)C(=O)C1 [Example 132, 8-bromo-1-(4-fluoro-3-methylbenzyl)-5-hydroxy-N-methyl-2-oxo-2,3-dihydro-1H-benzo[b]azepine-4-carboxamide] | 1 to 10 | 1 to 10 | 1 to 10 | 1 to 10 |
| CNC(=O)C1=C(O)c2ccc(OCc3ccc(OC)c(F)c3)cc2N(Cc2ccc(C)c(F)c2)C(=O)C1 [Example 133, 8-((3-fluoro-4-methoxybenzyl)oxy)-1-(3-fluoro-4-methylbenzyl)-5-hydroxy-N-methyl-2-oxo-2,3-dihydro-1H-benzo[b]azepine-4-carboxamide] | 1 to 10 | 1 to 10 | 1 to 10 | 1 to 10 |
| CNC(=O)C1=C(O)c2ccc(OCc3ccsc3)cc2N(Cc2ccc(C)c(F)c2)C(=O)C1 [Example 134, 1-(3-fluoro-4-methylbenzyl)-5-hydroxy-N-methyl-2-oxo-8-(thiophen-3-ylmethoxy)-2,3-dihydro-1H-benzo[b]azepine-4-carboxamide] | 1 to 10 | 1 to 10 | 1 to 10 | 1 to 10 |
| CNC(=O)C1=C(O)c2cc(F)ccc2N(Cc2ccc(C)c(F)c2)C(=O)C1 [Example 135, 7-fluoro-1-(3-fluoro-4-methylbenzyl)-5-hydroxy-N-methyl-2-oxo-2,3-dihydro-1H-benzo[b]azepine-4-carboxamide] | 1 to 10 | 1 to 10 | 1 to 10 | 1 to 10 |
| CNC(=O)C1=C(O)c2cc(C)ccc2N(Cc2ccc(C)c(F)c2)C(=O)C1 [Example 136, 1-(3-fluoro-4-methylbenzyl)-5-hydroxy-N,7-dimethyl-2-oxo-2,3-dihydro-1H-benzo[b]azepine-4-carboxamide] | 1 to 10 | 1 to 10 | 1 to 10 | 1 to 10 |
| CNC(=O)C1=C(O)c2cc(OC)ccc2N(Cc2ccc(C)c(F)c2)C(=O)C1 [Example 137, 1-(3-fluoro-4-methylbenzyl)-5-hydroxy-7-methoxy-N-methyl-2-oxo-2,3-dihydro-1H-benzo[b]azepine-4-carboxamide] | 1 to 10 | 1 to 10 | 1 to 10 | 1 to 10 |
| CNC(=O)C1=C(O)c2ccc(-c3cnn(C)c3)cc2N(Cc2ccc(C)c(F)c2)C(=O)C1 [Example 138, 1-(3-fluoro-4-methylbenzyl)-5-hydroxy-N-methyl-8-(1-methyl-1H-pyrazol-4-yl)-2-oxo-2,3-dihydro-1H-benzo[b]azepine-4-carboxamide] | 1 to 10 | 1 to 10 | 1 to 10 | 1 to 10 |
| CNC(=O)C1=C(O)c2ccc(C#N)cc2N(Cc2ccc(C)c(F)c2)C(=O)C1 [Example 139] | 1 to 10 | 1 to 10 | 1 to 10 | 1 to 10 |
